Results published in PMC10317891, “Fibroblast activation protein targeted radiotherapy induces an immunogenic tumor microenvironment and enhances the efficacy of PD-1 immune checkpoint inhibition” (European Journal of Nuclear Medicine and Molecular Imaging, 2023).
Numbered stars: 1 amine (or outer) side, 2 acyl side, 3 side chain; on linkers, the order of the positions; unused ones are H or OH. Bridge positions count the residues as written; N and C are the ends. Peptide text beside a SMILES is read from it. * marks the point of attachment. X1 = O=C(O)CN1CCN(CC(=O)O)CCN(CC(=O)N2CCN(Cc3cc(C[*:1])cc(C[*:2])c3)CC2)CCN(CC(=O)O)CC1; Hexanoyl = CCCCCC(=O)*

Assay: Plasma stability
Assay type: in vitro ADME
Settings: 10 µM, 37°C, UHPLC-QTOF MS with internal standard; for Plasma Stability (24 h) Human Plasma: human plasma with 3.8% sodium citrate; for Plasma Stability (24 h) Mouse Plasma: mouse plasma with 3.8% sodium citrate
Protocol: FAP-2287 was incubated in 50 µL of plasma with 3.8% sodium citrate as anticoagulant at a concentration of 10 µM. After 1, 2, 4, and 24 hours incubation at 37°C a suitable internal standard was added. FAP-2287 with plasma proteins were precipitated using 250 µL of a precipitation agent consisting of 1% trifluoroacetic acid in acetonitrile. Precipitation was carried out at room temperature for 30 minutes. After centrifugation at 18,200 relative centrifugal force (rcf) for 5 minutes, 100 µL of the supernatant was mixed with 100 µL of 1% formic acid.
A nonincubated plasma sample spiked with 10 µM sample concentration was prepared in the same way and was used as the reference. A pure plasma sample was incubated for 24 hours as a blank sample. A further pure plasma sample was incubated for 24 hours, processed as described above and spiked directly before analysis to determine the recovery. The samples were analyzed using an Agilent 1290 UHPLC system coupled to an Agilent 6530 QTOF mass spectrometer.
For the quantitative data analysis, the Agilent Quantitative Analysis B.08.00 software (RRID:SCR_015040) was used. The ion currents of the triply charged proton adducts of the compounds were extracted with a mass window of ±50 parts per million and the chromatographic peak was integrated. The concentration of the compound was determined by external matrix calibration with internal standard using 6 calibration samples (1, 2.5, 5, 7.5, 10, and 12.5 µM). A quadratic regression was performed. Carryover was determined by analyzing the blank sample directly after the highest calibration sample and comparing the determined peak areas. Recovery was calculated as the ratio between the spiked concentration of the recovery sample and the concentration calculated from the peak area of this sample.

Row | Structure (SMILES) | Plasma Stability (24 h) Human Plasma | Plasma Stability (24 h) Mouse Plasma
1 | CCCCCC(=O)N[C@H]1CSCc2cc(cc(CN3CCN(C(=O)CN4CCN(CC(=O)O)CCN(CC(=O)O)CCN(CC(=O)O)CC4)CC3)c2)CSC[C@@H](C(=O)N[C@@H](CC(=O)O)C(N)=O)NC(=O)[C@H](Cc2ccccc2)NC(=O)[C@H](CCC(N)=O)NC(=O)[C@H]([C@@H](C)O)NC(=O)[C@@H]2CCCN2C(=O)[C@@H]2CCCN2C1=O [FAP-2287] (Hexanoyl-CPPTQFCD-NH2; linker 1-7 via X1) | > 80% | > 80%
2 | CCCCCC(=O)N[C@H]1CSCc2cc(cc(CN3CCN(C(=O)CN4CCN(CC(=O)O)CCN(CC(=O)O)CCN(CC(=O)O)CC4)CC3)c2)CSC[C@@H](C(=O)N[C@@H](CC(=O)O)C(N)=O)NC(=O)[C@H](Cc2ccccc2)NC(=O)[C@H](CCC(N)=O)NC(=O)[C@H]([C@@H](C)O)NC(=O)[C@@H]2CCCN2C(=O)[C@@H]2CCCN2C1=O [natLu-FAP-2287, metal not drawn] (Hexanoyl-CPPTQFCD-NH2; linker 1-7 via X1; N-terminus and C-terminus assumed) | > 80% | > 80%
